Assay results reported in patent US20250152580A1, “METHODS FOR TREATING IMMUNE DISEASES” (Ascentage Pharma (Suzhou) co., Ltd., priority 2022, published 2025).
“Also recorded” adds a separate entry of the source.

Assays:
[1] = test system: TNBS induced inflammatory bowel disease (IBD) model; test: TNBS induced inflammatory bowel disease (IBD) model in Balb/c mice; assay type: in vivo; details: for colon weight: vehicle 336.8±25.15 mg; for colon length: vehicle 6.26±0.16 cm; for pathological score (colon, H&E): vehicle 10.33±0.35
Description: There are two kinds of IBD: Crohn's disease (CD) and ulcerative colitis (UC). TNBS administration results in a preclinical mouse model replicating clinical Crohn's disease.
Female Balb/c mice (8 weeks old) were obtained from Beijing Vital River Laboratory Animal Co. Ltd. Animals were housed and handled in a temperature-controlled environment with a 12-h light/12-h dark cycle. A total of 50 mice were assigned to 5 groups by randomization based on body weight.
On Day 0, the mice weighing 18-20 g were anesthetized with […] (Easycheck, M2910). The mice were further intra-rectally injected 100 μL 1.5% TNBS solution (final concentration 50% ethanol) in the vehicle group and other treatment groups. For the Sham group, the mice were intra-rectally injected with 50% ethanol at the same volume.
Mice in Group 1 and Group 2 were treated with vehicle for 8 days (po, qd, from day −1 to day 6). Mice in Group 3 were treated with 50 mg/kg Cpd. 4 for 8 days (preventive regimen, po, qd, from day −1 to day 6). Mice in Group 4 were treated with 50 mg/kg Cpd. 4 for 6 days (therapeutic regimen, po, qd, from day 1 to day 6). 50 mg/kg Mesalamine was used as positive control which was orally administered to mice in Group 5 for 8 days (preventive regimen, qd, from day −1 to day 6). The protocols and procedures involving the care and use of animals were approved by the Institutional Animal Care and Use Committee (IACUC) at WuxiApptec (Shanghai, China).
Clinical signs of IBD were assessed every day based on the score of disease activity index (DAI) which was evaluated from three parameters using a scoring system from 0 to 4: stool consistency (0, normal stool; 1, soft but still formed stool; 2, soft and not formed stool; 3, very soft and wet stool; 4, watery diarrhea), bleeding score (0, negative hemoccult; 1, weak positive hemoccult; 2, positive hemoccult; 3, blood trace in stool visible; 4, gross rectal bleeding) and body weight loss (0, no body weight loos; 1, 1-5% body weight loss; 2, 6-10% body weight loss; 3, 11-20% body weight loss; 4, >20% body weight loss).
At the end of induction with TNBS (day 7), the animals were euthanized, dissected and the entire colon was quickly removed and gently cleared of feces.
The entire colon was weighed, and the total length was measured. Colon weight gain and shortening is an indirect marker of inflammation. As expected, colon weight induced by TNBS increased to 336.8±25.15 mg. […] The TNBS-induced colon weight increasement were improved by Cpd. 4 treatment (202.4±3.95 mg for 50 mg/kg Cpd. 4 preventive therapy and 214.4±5.17 mg for 50 mg/kg Cpd. 4 therapeutic therapy) (FIG. 2).
At the end of induction with TNBS, the animals were euthanized, and blood was collected immediately by the heart punctures and used for whole blood cell analysis.
At the end of the study (day 7), the cell suspensions from sham control, model control and Cpd. 4 therapeutic treatment groups were obtained from mesenteric lymph nodes (MLN). Cells were stained with the following florescence-labelled antibodies: APC-Cy7-conjugated anti-mouse CD45, BV510-conjugated anti-mouse CD3e, AF700-conjugated anti-mouse CD8a, BUV395-conjugated anti-mouse CD4, BV421-conjugated anti-mouse CD25, FITC-conjugated anti-mouse Foxp3, BV650-conjugated anti-mouse IFN-γ, BV786-conjugated anti-mouse IL-17A, BB700-conjugated anti-mouse TNF-α, APC-conjugated anti-mouse B220, BV395-conjugated anti-mouse CD3e, BV605-conjugated anti-mouse CD11b, BB700-conjugated anti-mouse CD11c, AF488-conjugated anti-mouse MHCII, BV421-conjugated anti-mouse NK1.1, BV510-conjugated anti-mouse Ly6G, PE-Cy7-conjugated anti-mouse CD107a and PE-CF594-conjugated anti-mouse F4/80. All cells were primarily gated on single and live lymphocytes based on forward scatter (FCS), side scatter (SSC) and live/dead staining buffer. Samples were analyzed on a flow cytometer (BD LSRFortessa) to count the percentage of each subtype of lymphocytes. […]

[2] = test system: OXA induced atopic dermatitis model; test: OXA induced atopic dermatitis (AD) model in C57BL/6 mice; assay type: in vivo; details: Cpd. 4 10, 30 and 100 mg/kg po qd day 7-25; dexamethasone 25 μL of 0.09% (w/v) topical qd; compared with Vehicle
Description: Atopic dermatitis (AD) is a chronic skin disease that presents with itching, erythema and squamous lesions. Haptenating agent oxazolone (OXA) sensitization and continuous challenge establish AD like skin inflammation.
Female C57BL/6 mice (6 weeks old) were obtained from Biocytogen Laboratory Animal Co. Ltd. Animals were housed and handled in a temperature-controlled environment with a 12-h light/12-h dark cycle. A total of 48 mice were assigned to 6 groups by randomization based on body weight.
To induce AD-like lesion, all right ears of mice except the G1 sham control group were applied with oxazolone (OXA). Briefly, skin inflammation was induced by topical administration with 25 μL of 0.8% OXA dissolved in acetone on day 0, and repeated 25 μl of 0.4% OXA three times a week from day 7 to 25. G1 sham control group was treated same volume of vehicles. Therapeutic groups as 10 mg/kg, 30 mg/kg and 100 mg/kg Cpd. 4 (po, qd, day 7 to day 25) or 25 μL of 0.09% (w/v) dexamethasone (topical, qd, day 7 to day 25) were applied to the mice. The protocols and procedures involving the care and use of animals were approved by the Institutional Animal Care and Use Committee (IACUC) at Biocytogen (Beijing, China).
Ear thickness of mice was measured before application of Oxa and every other day from day 7 to day 26. […]

[3] = 50 mg/kg po qd preventive treatment, day 7
[4] = 50 mg/kg po qd therapeutic treatment, day 7
[5] = 50 mg/kg po qd, Cpd. 4 preventive and therapeutic, mesalamine day −1 to day 6, compared with Vehicle
[6] = Cpd. 4 50 mg/kg po qd, preventive and therapeutic, compared with Vehicle, 50 mg/kg
[7] = mesenteric lymph nodes, flow cytometry, day 7, 50 mg/kg therapeutic treatment, compared with vehicle

SMILES: O=C(NS(=O)(=O)c1ccc(NC[C@H]2COCCO2)c([N+](=O)[O-])c1)c1ccc(N2CCN(CC3=C(c4ccc(Cl)cc4)CC4(CCC4)CC3)CC2)cc1Oc1cnc2[nH]ccc2c1 [Cpd. 4, (S)-N-((4-(((1,4-dioxan-2-yl)methyl)amino)-3-nitrophenyl)sulfonyl)-2-((1H-pyrrolo[2,3-b]pyridin-5-yl)oxy)-4-(4-((6-(4-chlorophenyl)spiro[3.5]non-6-en-7-yl)methyl)piperazin-1-yl)benzamide]
- colon weight ([1]; 50 mg/kg po qd preventive therapy (day −1 to day 6), day 7): 202.4 ± 3.95 mg
- colon length [1, 3]: 7.81±0.2 cm
- pathological score (colon, H&E) [1, 3]: 2.70±0.80
- colon weight ([1]; 50 mg/kg po qd therapeutic therapy (day 1 to day 6), day 7): 214.4 ± 5.17 mg
- colon length [1, 4]: 7.39±0.12 cm
- pathological score (colon, H&E) [1, 4]: 5.00±1.15
- disease activity index (DAI), clinical score of IBD ([1]; 50 mg/kg po qd, Cpd. 4 preventive (day −1 to day 6) and therapeutic (day 1 to day 6) regimens, mesalamine day −1 to day 6, compared with Vehicle): significantly reducing the clinical score; also recorded: significantly reduced DAI
- colon length (in words) [1, 5]: increased colon length
- colon weight (in words) [1, 5]: significantly decreased colon weight
- body weight loss ([1]; Cpd. 4 50 mg/kg po qd, preventive and therapeutic regimens, compared with Vehicle, 50 mg/kg): improving body weight loss; also recorded: improved body weight loss
- cell number of monocytes in peripheral blood [1, 6]: significantly reduced; also recorded: significantly decreased
- cell number of neutrophils in peripheral blood [1, 6]: significantly reduced; also recorded: significantly decreased
- anemia (red blood cells and hemoglobin in peripheral blood) ([1]; Cpd. 4 50 mg/kg po qd, compared with Vehicle): improved anemia
- fibrosis score (Masson's Trichrome staining of colon) ([1]; Cpd. 4 50 mg/kg therapeutic treatment, compared with Vehicle): significantly reduced
- pathological score (in words) ([1]; Cpd. 4 preventive and therapeutic, compared with Vehicle): significantly decreased
- percentage of IFN-γ secreting CD4+ T cells (Th1 cells) [1, 7]: significantly reduced
- percentage of IL-17A secreting CD4+ T cells (Th17 cells) [1, 7]: significantly reduced
- percentage of NK cells (CD45+CD3−B220−NK1.1+) [1, 7]: significantly reduced
- percentage of activated NK cells (CD45+CD3−B220−NK1.1+CD107a+) [1, 7]: significantly reduced
- percentage of macrophages (CD45+CD3−B220−CD11b+F4/80+) [1, 7]: significantly reduced
- percentage of neutrophils (CD45+CD3−B220−CD11B+LY6G+) [1, 7]: significantly reduced
- ear thickness [2]: significantly reducing the ear thickness; also recorded: significantly reduced
